Results published in patent US20180008587A1, “THIOHYDANTOIN ANDROGEN RECEPTOR ANTAGONISTS FOR THE TREATMENT OF CANCER” (Jaressen Pharmaceutica NV, priority 2016, published 2018).
Where a chain is given by its changes, count along the chain named.

Assays:
Format in all cases: cell-based
[1] = target: T1, wild-type Androgen Receptor (AR-wt) (Homo sapiens, UniProt P10275); experiment: LNCaP-AR-wt ANT reporter assay (ARE firefly luciferase, antagonist mode); conditions: for IC50: antagonist mode, 400 pM R-1881 challenge, −Log10(IC50 [Molar]), read-out: LNCaP-AR-wt ANT pIC50 (converted); for Emax: maximum % inhibition of R1881 control response over tested concentration range, read-out: LNCaP-AR-wt ANT MAX % Inh
T1 construct: expressed in transfected cells; host or cells: LNCaP (LNCaP AR (cs))
T1 sequence (P10275 1-920): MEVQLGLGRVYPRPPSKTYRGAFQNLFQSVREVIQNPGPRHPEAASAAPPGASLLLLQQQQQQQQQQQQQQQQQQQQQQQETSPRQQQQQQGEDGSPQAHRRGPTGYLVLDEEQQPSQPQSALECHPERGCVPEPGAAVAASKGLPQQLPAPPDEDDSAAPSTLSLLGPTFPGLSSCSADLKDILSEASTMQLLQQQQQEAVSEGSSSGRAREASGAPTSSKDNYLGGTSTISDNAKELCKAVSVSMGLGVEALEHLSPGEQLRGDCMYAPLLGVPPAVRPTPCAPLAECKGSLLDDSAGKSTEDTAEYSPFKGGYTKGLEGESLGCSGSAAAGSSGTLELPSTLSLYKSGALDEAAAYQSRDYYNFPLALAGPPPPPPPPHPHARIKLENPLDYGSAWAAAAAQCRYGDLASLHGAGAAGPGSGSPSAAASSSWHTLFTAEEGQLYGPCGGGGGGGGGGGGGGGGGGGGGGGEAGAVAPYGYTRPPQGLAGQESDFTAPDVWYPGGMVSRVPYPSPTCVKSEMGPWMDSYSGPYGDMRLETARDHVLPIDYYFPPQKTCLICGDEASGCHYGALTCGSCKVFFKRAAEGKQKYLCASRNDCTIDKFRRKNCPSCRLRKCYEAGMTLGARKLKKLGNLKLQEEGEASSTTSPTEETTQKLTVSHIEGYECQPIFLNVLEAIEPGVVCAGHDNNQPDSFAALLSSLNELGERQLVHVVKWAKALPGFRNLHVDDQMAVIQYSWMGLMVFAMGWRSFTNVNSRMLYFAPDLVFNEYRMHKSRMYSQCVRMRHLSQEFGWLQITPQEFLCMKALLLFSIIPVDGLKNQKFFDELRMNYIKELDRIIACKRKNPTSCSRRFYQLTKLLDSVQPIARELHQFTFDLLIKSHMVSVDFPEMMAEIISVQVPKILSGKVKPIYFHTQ
How it was run: (§1)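 Puromycin-selected LNCaP pools, grown in charcoal-stripped serum, were incubated 20-24 h at 37 °C with compounds, plus agonist challenge at 400 pM for wild-type and 600 pM for F876L.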

[2] = target: T1, wild-type Androgen Receptor (AR-wt); experiment: LNCaP-AR-wt AG reporter assay (ARE firefly luciferase, agonist mode); conditions: for EC50: agonist mode, −Log10(EC50 [Molar]), read-out: LNCaP-AR-wt AG pEC50 (converted); for Emax: maximum % stimulation (agonist response) over tested concentration range, read-out: LNCaP-AR-wt AG MAX % Stim
How it was run: (§2)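 Cells: stable LNCaP pools, AR-wt or AR-F876L, in charcoal-stripped serum. Agonist challenge for antagonist mode was 400 pM (WT) and 600 pM (F876L). Luminescence was measured after 20-24 h incubation.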

[3] = target: T2, F876L mutant Androgen Receptor (AR-F876L) (Homo sapiens, UniProt P10275, F877L); experiment: LNCaP-AR-F876L ANT reporter assay (ARE firefly luciferase, antagonist mode); conditions: for Emax: maximum % inhibition of R1881 control response over tested concentration range, read-out: LNCaP-AR-F876L ANT MAX % Inh; for IC50: read-out: LNCaP-AR-F876L ANT pIC50 (converted)
T2 construct: expressed in transfected cells; host or cells: LNCaP (LNCaP F876L)
T2 sequence (P10275 1-920 F877L): T1 sequence (P10275 1-920) with F877L
How it was run: as §1

[4] = target: T2, F876L mutant Androgen Receptor (AR-F876L); experiment: LNCaP-AR-F876L AG reporter assay (ARE firefly luciferase, agonist mode); conditions: for EC50: agonist mode, −Log10(EC50 [Molar]), read-out: LNCaP-AR-F876L AG pEC50 (converted); for Emax: maximum % stimulation (agonist response) over tested concentration range, read-out: LNCaP-AR-F876L AG MAX % Stim
How it was run: as §2

Structure (SMILES)	IC50 [1] [nM]	Emax [1] [%]	EC50 [2] [nM]	Emax [2] [%]	Emax [3] [%]	IC50 [3] [nM]	EC50 [4] [nM]	Emax [4] [%]
N#Cc1ncc(N2C(=O)C3(CCC3)N(c3ccc(OC4CCNCC4)cc3)C2=S)cc1C(F)(F)F [Cpd 35, 5-[5-oxo-8-[4-(4-piperidyloxy)phenyl]-7-thioxo-6,8-diazaspiro[3.4]octan-6-yl]-3-(trifluoromethyl)pyridine-2-carbonitrile]	240	97.5	> 15100	-0.1	101	145	> 15100	0
N#Cc1ncc(N2C(=O)C3(CCC3)N(c3ccc(C(=O)NCCCO)c(F)c3)C2=S)cc1C(F)(F)F [Cpd 40, 4-[6-[6-cyano-5-(trifluoromethyl)-3-pyridyl]-5-oxo-7-thioxo-6,8-diazaspiro[3.4]octan-8-yl]-2-fluoro-N-(3-hydroxypropyl)benzamide]	240	101	> 15100	-0.3	99.5	162	> 15100	0.2
CN1CCC(Oc2ccc(N3C(=S)N(c4cnc(C#N)c(C(F)(F)F)c4)C(=O)C34CCC4)cc2)CC1 [Cpd 85, 5-[8-[4-[(1-methyl-4-piperidyl)oxy]phenyl]-5-oxo-7-thioxo-6,8-diazaspiro[3.4]octan-6-yl]-3-(trifluoromethyl)pyridine-2-carbonitrile]		101		0.2	99.8			0.8
